Among the test systems are SNB-19 CNS; IGROV1 ovarian; TK-10 renal; UO-31 renal; SN12C renal; HL-60(TB) leukemia; M14 melanoma; UACC-62 melanoma; NCI/ADR-RES ovarian; RPMI-8226 leukemia.
Holding throughout (test): NCI tumour cell line growth inhibition, 48 h

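Five compound concentrations were applied to cells in 96-well plates for 48 hours; endpoints were derived by simple linear interpolation of the resulting dose-response curve. TGI: total growth inhibition.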

Turning to `COC(=O)C1(NC(=O)C(Cc2ccccc2)N(C(=O)OC(C)(C)C)C(=O)OC(C)(C)C)CCCC1` (stereo not given), the TGI with SNB-19 CNS was above 100 µM; with IGROV1 ovarian it was above 100 µM; in the assay with TK-10 renal, above 100 µM; in the assay with UO-31 renal it was above 100 µM; in the assay on SN12C renal, above 100 µM; in the assay on HL-60(TB) leukemia it was 62.1 µM. For the same compound, the TGI in the assay with M14 melanoma was above 100 µM; in the assay with UACC-62 melanoma, above 100 µM; with NCI/ADR-RES ovarian, above 100 µM; with RPMI-8226 leukemia, 47.1 µM.

These data come from PubChem BioAssay (NCI).
